Assay results as given in patent publication US20180209979A1, “METHOD FOR INDIVIDUALIZED CANCER THERAPY” (INSERM (INSTITUT NATIONAL DE LA SANTE ET DE LA RECHERCHE), priority 2015, published 2018).

Legend:
CAL 33 cells = assay: qPCR analysis of pro-angiogenic/pro-inflammatory genes induced by TRF2 silencing; type: cell-based, human; details: shC cells = 100
Excerpt: (§1) To further analyze the effect of TRF2 knock-down on cell proliferation, invasion capabilities and treatment response, CAL 33 cells expressing shRNA against TRF2 and dominant negative forms of TRF2 were generated (Biroccio A et al. Nat Cell Biol 2013; 15(7):818-28). CAL 33 cells were infected using lentiviral vector (pLKOpuro-3×LacO, Sigma). The plasmids contained scramble (shC; SEQ ID No1) or TRF2-specific shRNA, sh1 (SEQ ID No2) or sh2 (SEQ ID No3).

CAL33LUC cells = assay: Tumor xenograft formation, size evaluation and tumor section analysis; type: in vivo; details: 10^6 CAL33LUC cells subcutaneously in nude mice, versus shC, FIG. 5
Method: 10^6 cells were injected subcutaneously into the flanks of 5-week-old nude (nu/nu) female mice (Janvier). Bioluminescence was quantified using the In Vivo Imaging System (Perkin Elmer) according to the manufacturer's instructions. Tumor volume [(v ¼ L l^2 0.52] was determined in parallel using a caliper. There was a linear relationship between values for bioluminescence and the tumor volume.
Immuno-histochemical staining for TRF2 was carried out in 3 μm tissue sections from formalin-fixed, paraffin-embedded tissue blocks. Histopathological analysis was conducted in 3 μm tissue sections colored with Masson's trichrome (blue collagen) and scanned with Leica Slide Path. For each tumor, pictures were taken and the following parameters were analyzed using Leica Slide Path Gateway software: total area of the section, area of necrosis, presence of white blood cells inflammatory infiltrate, presence of red blood cells extravasation, thickness of collagen around vessels, number of vessels.

CAL33 cells [1] = assay: Cumulative population doublings of CAL33 cells; type: cell-based, human; details: FIG. 2B
Method: (§2) For cumulative population doublings assays (Nekanti U et al. Int J Biol Sci 2010; 6(5):499-512.) 10^5 cells were grown in 7.5% FCS-DMEM medium for 28 days at 37° C. and 5% CO2 in Petri boxes 100 mm diameter. Cells were counted each day (Coulter, Beckman) and media were changed every five days. Cells at each passage was calculated as a ratio of total number of cells harvested to total number of cells seeded multiplied by the total number of cells from the previous passage. Population doublings were calculated using the formula: […]
(§3) in which NI is the inoculum cell number and NH the cell harvest number.
(§4) To yield the cumulated doubling level, the population doubling for each passage was calculated and then added to the population doubling levels of the previous passages. The population doubling time was obtained by the formula: […]
(§5) In which NI is the inoculum cell number; NH is the cell harvest number and t is the time of the culture (in hours).

CAL27 cells = assay: Cumulative population doublings of CAL27 cells; type: cell-based, human; details: FIG. 3B
Method: as §2, §3, §4, §5

CAL33 cells [2] = assay: Clonogenicity assay (clonal growth) of shC, sh1 and sh2 CAL33 cells; type: cell-based, human; details: for inhibition at 0.1 µM: Homo sapiens, CAL-33, erlotinib 0.1 μmol/L, FIG. 7
Method: The mean and standard deviation were calculated for three independent experiments. Statistical analysis was carried out using a t test. […] Dishes were then stained with Giemsa (Fluka) and plates were scanned in order to analyze the results by computer with ImageJ software (NIH, USA).

TRF2 = TRF2 knock-down tested by immunoblotting in CAL33 cells; type: cell-based, human; details: FIG. 2A
Excerpt: as §1
The following antibodies were used for Western blotting: anti-phospho ERK 1,2 (Sigma St Louis, Mo.), anti-phospho Akt, anti-Akt, anti-EGFR (Cell Signaling, Cambridge, UK,), anti-ERKs (Santa Cruz Biotechnology, Santa Cruz, Calif.)), anti-TRF2 (Novus bio, Cambridge, UK) and alpha-tubulin (Fischer scientific, Illkirch France).

CAL33 cells [3] = details: read-out: IC50 of erlotinib, Quesnelle K M et al. 2012; cited from earlier work
head and neck tumors = details: Agulnik M et al. 2007; cited from earlier work

Row | Molecule | percentage expression of 36B4 (CAL 33 cells) | percentage expression of CXCL1 (CAL 33 cells) | percentage expression of CXCL7 (CAL 33 cells) | percentage expression of CXCL8 (CAL 33 cells) | percentage expression of CXCL9 (CAL 33 cells) | percentage expression of GAPDH (CAL 33 cells) | percentage expression of IL6 (CAL 33 cells) | percentage expression of PDGF-BB (CAL 33 cells) | percentage expression of RANTES (CAL 33 cells) | percentage expression of TRF2 (CAL 33 cells) | percentage expression of m-RPLP0 (CAL 33 cells) | tumor growth / tumor size (bioluminescence) (CAL33LUC cells) | proliferation (cumulative population doublings) (CAL33 cells [1]) | proliferation (cumulative population doublings) (CAL27 cells) | other results
1 | sh1: TRF2-specific shRNA encoded by DNA of SEQ ID No2, expressed from lentiviral vector (DNA GCCAGAATATCATTAGCGTTTCTCGAGAAACGCTAATGATATTCTGGC) | 100% | 380(***) % | 110% | 350(***) % | 210(**) % | 100% | 400(***) % | 150(*) % | 270(***) % | 70% | 100% | decreases tumor growth | does not impair CAL33 proliferation | does not impair CAL27 proliferation | 
2 | O=c1[nH]cc(F)c(=O)[nH]1 [5 FU] |  |  |  |  |  |  |  |  |  |  |  |  |  |  | influence of TRF2 knock-down on the efficacy of the drug (clonal growth) (CAL33 cells [2]; shC, sh1 and sh2 CAL33 cells, FIG. 6B): no influence
3 | sh2: TRF2-specific shRNA encoded by DNA of SEQ ID No3, expressed from lentiviral vector (DNA GCGCATGACAATAAGCAGATTCTCGAGAATCTGCTTATTGTCATGCGC) | 100% | 370(***) % | 120(*) % | 1100(***) % | 600(***) % | 100% | 1000(***) % | 190(***) % | 190(***) % | 40% | 100% | decreases tumor growth | does not impair CAL33 proliferation | does not impair CAL27 proliferation | tumor growth / tumor size (bioluminescence) (CAL33LUC cells; listed as shTRF2 #2): smallest tumors; efficacy in knocking-down TRF2 (TRF2): most efficient
4 | C#Cc1cccc(Nc2ncnc3cc(OCCOC)c(OCCOC)cc23)c1 [erlotinib] |  |  |  |  |  |  |  |  |  |  |  |  |  |  | inhibition at 0.1 µM (CAL33 cells [2]; sh1 CAL33 cells (TRF2 knock-down)): 40%; inhibition at 0.1 µM (CAL33 cells [2]; sh2 CAL33 cells (TRF2 knock-down)): 50%; IC50 (CAL33 cells [3]): 5.4 µM; patients with an objective response to the treatment (head and neck tumors): 50%
